Reference: US4001248A, “N-cycloalkylmethyl decahydroisoquinolines” (Eli Lilly and Company, priority 1974, dated 1977)
“And” between values parts separate entries of the source, which are not always exact repeats. Equal values may be shown once. Where a name gives a salt, the structure may show the parent alone. Read-outs that look alike come from different tables or passages of the source.

What was measured:
[1] = test system: rat tail jerk; test: rat tail jerk assay (increase in reaction time over control); type: in vivo
Description: The compounds of this invention are also active in the rat tail jerk assay, another standard pharmacologic test for analgesic activity of the opiate-type. Such activity is manifested as an increase in the reaction time of the animal in removing (jerking) its tail from a nearby heat stimulus (a resistance wire) after drug administration compared to control time (no drug administered). Table 2 which follows gives the increased reaction times over control times produced by the compounds of this invention when administered subcutaneously. In Tables 2 and 3, column 1 gives the name of the compound; column 2, the dose; column 3, time of observation after administration of the drug; column 4, the increase in reaction time above control in seconds; and column 5, the level of significance of the results ("p" value). […] All drugs were administered as aqueous solutions. More than one value for a given dose level indicates multiple determinations. The results are not averaged.

[2] = test system: morphine; test: modified rat tail jerk assay, antagonism of morphine; type: in vivo, rats; settings: for minimal effective dose: Rattus norvegicus, morphine 5 mg./kg. subcutaneous
Protocol: The ability of the compounds of this invention to antagonize the action of morphine, an opiate, is shown by the following modification of the aforementioned rat tail jerk assay: The standard assay procedure is used with the exception that a 7 amps. current is used instead of a 6 amps. current in the hot wire to decrease the measurable agonist effects of the antagonist. The drugs under test are then administered to groups of rats at different dose levels at different times prior to test, with a 5 mg./kg. dose of morphine invariably being administered 10 minutes prior to test. Positive evidence of antagonism is a decreased reaction time over that to be expected from the morphine. […] Among the compounds of this invention, those in which R in Structure I is cyclopropylmethyl are the preferred antagonists, showing activity in the above test procedure. […] In a series of determinations, it was ascertained that the minimum subcutaneous dose necessary to reduce the analgesic effects of a 5 mg./kg. subcutaneous dose of morphine was in the range 2.5-5.0 mg./kg. and the minimum oral dose, 5-10 mg./kg.

[3] = test system: morphine induced Straub tail; test: blocking of morphine induced Straub tail in mice; type: in vivo; settings: 50 mg./kg. subcutaneous, morphine 40 mg./kg. subcutaneous
Protocol: In this assay, a 40 mg./kg. dose of morphine was administered to mice 15 minutes prior to assay, and the test drug at various intervals before assay. Trans-dl-1 -cyclopropylmethyl-3a-(m-hydroxyphenyl)-1,2,3,3a,4,5,6,7,7a,8-decahydroisoquinoline maleate gave a 100 percent block of the Straubed tail effected by a subcutaneous injection of 40 mg./kg. of morphine when the test drug was given at a dose of 50 mg./kg. subcutaneously 15 minutes prior to assay, and 80 percent when given 30 minutes prior to assay. The l(-) isomer gave 100 percent blocking on the morphine-induced Straub tail at 50 and 20 mg./kg. doses 15 and 30 minutes before assay.

[4] = test system: writhing in mice induced by the intraperitoneal injection of acetic acid; test: mouse-writhing test (inhibition of writhing induced by intraperitoneal acetic acid); type: in vivo; settings: for ED50: Mus musculus, read-out: Median inhibiting dose (I.D.50)
Description: In the Table, column 1 gives the name of the compund; column 2, the dosage in mg./kg. of mouse weight; column 3, the route of administration of the drug ("S.C." is subcutaneous and "or" is oral); and column 4, the percent inhibition found at the particular dose level. […] Median inhibiting doses (I.D.50) are also included in the Table.

[5] = toxicity (L.D.50); type: in vivo, mice; settings: compared with dl mixture; listed as d(+) isomer
[6] = subcutaneous, 50 mg./kg., 15 min
[7] = subcutaneous, 50 mg./kg., 30 min
[8] = subcutaneous, 50 mg./kg., 120 min
[9] = subcutaneous, 100 mg./kg., 15 min

## Oc1cccc([C@]23CCCC[C@@H]2CN(CC2CC2)CC3)c1 (stereo in doubt) [Trans-dl-1-cyclopropylmethyl-3a-(m-hydroxyphenyl)-1,2,3,3a,4,5,6,7,7a,8-decahydroisoquinoline maleate]
[1]; oral, 5 mg./kg., 15 min
  Increase in Reaction Time Over Control: 0 s
[1]; oral, 10 mg./kg., 15 min
  Increase in Reaction Time Over Control: .90 s
[1]; oral, 15 mg./kg., 15 min
  Increase in Reaction Time Over Control: .95 s
[1]; oral, 20 mg./kg., 30 min
  Increase in Reaction Time Over Control: 1.17 s
[1]; oral, 20 mg./kg., 45 min
  Increase in Reaction Time Over Control: 1.33 s
[1]; oral, 25 mg./kg., 15 min
  Increase in Reaction Time Over Control: 2.10 s
[1]; oral, 25 mg./kg., 30 min
  Increase in Reaction Time Over Control: .30 s
[1]; oral, 50 mg./kg., 10 min
  Increase in Reaction Time Over Control: 2.83 s and 2.73 s and 2.88 s
[1]; oral, 50 mg./kg., 15 min
  Increase in Reaction Time Over Control: 4.25 s and 4.92 s and 5.08 s
[1]; oral, 50 mg./kg., 60 min
  Increase in Reaction Time Over Control: 2.42 s
[1]; oral, 50 mg./kg., 90 min
  Increase in Reaction Time Over Control: 1.38 s
[1]; oral, 50 mg./kg., 120 min
  Increase in Reaction Time Over Control: 1.17 s
[1]; oral, 100 mg./kg., 5 min
  Increase in Reaction Time Over Control: .55 s
[1]; oral, 100 mg./kg., 10 min
  Increase in Reaction Time Over Control: 2.45 s
[1]; oral, 100 mg./kg., 15 min
  Increase in Reaction Time Over Control: 4.85 s and 7.46 s and 4.50 s
[1]; oral, 100 mg./kg., 15 min, 20 sec. cut off
  Increase in Reaction Time Over Control: 5.45 s
[1]; oral, 100 mg./kg., 30 min
  Increase in Reaction Time Over Control: 3.45 s and 4.05 s and 6.79 s and 4.38 s
[1]; oral, 100 mg./kg., 60 min
  Increase in Reaction Time Over Control: 2.05 s
[1]; oral, 200 mg./kg., 15 min, 20 sec. cut off
  Increase in Reaction Time Over Control: 7.25 s and 7.13 s
[1]; oral, 200 mg./kg., 30 min
  Increase in Reaction Time Over Control: 2.75 s and 1.42 s
[1]; oral, 200 mg./kg., 45 min
  Increase in Reaction Time Over Control: 5.79 s
[1]; oral, 300 mg./kg., 15 min
  Increase in Reaction Time Over Control: 7.75 s
[1]; subcutaneous, 0.5 mg./kg., 15 min
  Increase in Reaction Time Over Control: .75 s
[1]; subcutaneous, 1 mg./kg., 15 min
  Increase in Reaction Time Over Control: .50 s
[1]; subcutaneous, 2 mg./kg., 15 min
  Increase in Reaction Time Over Control: 2.21 s
[1]; subcutaneous, 3 mg./kg., 15 min
  Increase in Reaction Time Over Control: 2.04 s
[1]; subcutaneous, 7 mg./kg., 15 min
  Increase in Reaction Time Over Control: 4.25 s
[1]; subcutaneous, 20 mg./kg., 15 min
  Increase in Reaction Time Over Control: 5.17 s and 3.70 s
[1]; subcutaneous, 25 mg./kg., 15 min
  Increase in Reaction Time Over Control: 4.40 s
[1]; subcutaneous, 30 mg./kg., 15 min, 20 sec. cut off
  Increase in Reaction Time Over Control: 4.25 s
[1]; subcutaneous, 40 mg./kg., 15 min
  Increase in Reaction Time Over Control: 3.90 s
[1]; subcutaneous, 50 mg./kg., 5 min, 15 sec. cut off
  Increase in Reaction Time Over Control: 4.85 s
[1]; subcutaneous, 50 mg./kg., 10 min, 15 sec. cut off
  Increase in Reaction Time Over Control: 4.95 s
[1]; subcutaneous, 50 mg./kg., 10 min, 20 sec. cut off
  Increase in Reaction Time Over Control: 4.85 s
[1]; [6]
  Increase in Reaction Time Over Control: 4.0 s and 5.98 s
[1]; subcutaneous, 50 mg./kg., 15 min, 15 sec. cut off
  Increase in Reaction Time Over Control: 6.50 s
[1]; subcutaneous, 50 mg./kg., 15 min, 20 sec. cut off
  Increase in Reaction Time Over Control: 6.08 s
[1]; [7]
  Increase in Reaction Time Over Control: 5.75 s
[1]; subcutaneous, 50 mg./kg., 30 min, 15 sec. cut off
  Increase in Reaction Time Over Control: 5.10 s
[1]; subcutaneous, 50 mg./kg., 45 min
  Increase in Reaction Time Over Control: 3.00 s
[1]; subcutaneous, 50 mg./kg., 90 min
  Increase in Reaction Time Over Control: 1.85 s
[1]; [8]
  Increase in Reaction Time Over Control: 2.45 s
[1]; subcutaneous, 50 mg./kg., 180 min
  Increase in Reaction Time Over Control: 1.80 s
[1]; subcutaneous, 60 mg./kg., 15 min, 20 sec. cut off
  Increase in Reaction Time Over Control: 4.40 s
[1]; [9]
  Increase in Reaction Time Over Control: 4.15 s
[1]; subcutaneous, 200 mg./kg., 15 min
  Increase in Reaction Time Over Control: 5.65 s
[2]; 50 mg./kg. subcutaneous, 30 and 60 minutes prior, morphine 5 mg./kg.
  blocking of the analgesic effect of morphine: very effectively blocked the analgesic effect of 5 mg./kg. of morphine
[2]; sc, subcutaneous, read-out: minimum subcutaneous dose necessary to reduce the analgesic effects of morphine
  minimal effective dose: 2.5 to 5 mg/kg
[2]; oral, read-out: minimum oral dose necessary to reduce the analgesic effects of morphine
  minimal effective dose: 5 to 10 mg/kg
[2]; dose not stated
  antagonism of morphine: antagonizes the effects of morphine
[3]; 15 minutes prior
  block of the Straubed tail: 100%
[3]; 30 minutes prior
  block of the Straubed tail: 80%
[4]; 2 mg./kg. S.C., reading at 0.5 hours
  % Inhibition: 6%
[4]; 5 mg./kg. S.C., reading at 0.5 hours
  % Inhibition: 66%
[4]; 10 mg./kg. S.C., reading at 0.5 hours
  % Inhibition: 72%
[4]; 20 mg./kg. S.C., reading at 0.5 hours
  % Inhibition: 99%
[4]; 20 mg./kg. oral, reading at 0.5 hours
  % Inhibition: 46%
[4]; 50 mg./kg. oral, reading at 0.5 hours
  % Inhibition: 56%
[4]; 100 mg./kg. S.C., reading at 0.5 hours
  % Inhibition: 100%
[4]; 100 mg./kg. oral, reading at 0.5 hours
  % Inhibition: 92%
[4]; sc, S.C.
  ED50: 2 to 5 mg/kg
[4]; oral
  ED50: 20 to 50 mg/kg

## O=C(O)/C=C\C(=O)O.Oc1cccc([C@@]23CCCC[C@H]2CN(CC2CC2)CC3)c1 (stereo in doubt) [Trans-d(+)-1-cyclopropylmethyl-3a-(m-hydroxyphenyl)-1,2,3,3a] [Trans-d(+)-1-cyclopropylmethyl-3a-(m-hydroxyphenyl)-1,2,3,3a,4,5,6,7,7a,8-decahydroisoquinoline maleate]
[1]; oral, 100 mg./kg., 30 min
  Increase in Reaction Time Over Control: 0 s
[1]; oral, 100 mg./kg., 60 min
  Increase in Reaction Time Over Control: 0 s
[1]; oral, 100 mg./kg., 120 min
  Increase in Reaction Time Over Control: .40 s
[1]; oral, 150 mg./kg., 15 min
  Increase in Reaction Time Over Control: 0 s
[1]; oral, 150 mg./kg., 30 min
  Increase in Reaction Time Over Control: 0 s
[1]; oral, 150 mg./kg., 60 min
  Increase in Reaction Time Over Control: .35 s
[1]; oral, 150 mg./kg., 120 min
  Increase in Reaction Time Over Control: .30 s
[1]; oral, 150 mg./kg., 180 min
  Increase in Reaction Time Over Control: .30 s
[1]; oral, 200 mg./kg.
  lethality in the rat tail jerk assay: lethal
[1]; subcutaneous, 10 mg./kg., 15 min
  Increase in Reaction Time Over Control: 0 s
[1]; [6]
  Increase in Reaction Time Over Control: .25 s
[1]; [7]
  Increase in Reaction Time Over Control: 1.30 s
[1]; subcutaneous, 50 mg./kg., 60 min
  Increase in Reaction Time Over Control: 2.25 s
[1]; [8]
  Increase in Reaction Time Over Control: .10 s
[1]; [9]
  Increase in Reaction Time Over Control: .50 s
[1]; subcutaneous, 100 mg./kg., 30 min
  Increase in Reaction Time Over Control: 1.55 s
[1]; subcutaneous, 100 mg./kg., 60 min
  Increase in Reaction Time Over Control: 3.50 s
[1]; subcutaneous, 100 mg./kg., 120 min
  Increase in Reaction Time Over Control: 1.15 s
[2]; 100 mg./kg. subcutaneous, 60 minutes before test
  morphine antagonistic effects: shows morphine antagonistic effects
[5]
  toxicity relative to the dl mixture: about the same toxicity as the dl mixture
[4]; 5 mg./kg. S.C., reading at 0.25 hours
  % Inhibition: inact
[4]; 50 mg./kg. S.C., reading at 0.25 hours
  % Inhibition: 44%
[4]; 100 mg./kg. S.C., reading at 0.25 hours
  % Inhibition: 51%
